The record followed here is PMC12259267, “Disruption of the KLHL37–N-Myc complex restores N-Myc degradation and arrests neuroblastoma growth in mouse models” (The Journal of Clinical Investigation, 2025).

This test concerns the target T1, KLHL37 (Homo sapiens, UniProt O14682).
T1 construct: gene ENC1; recombinant KLHL37-His (full-length cDNA, pET-28a, E. coli)
T1 sequence (O14682 1-589): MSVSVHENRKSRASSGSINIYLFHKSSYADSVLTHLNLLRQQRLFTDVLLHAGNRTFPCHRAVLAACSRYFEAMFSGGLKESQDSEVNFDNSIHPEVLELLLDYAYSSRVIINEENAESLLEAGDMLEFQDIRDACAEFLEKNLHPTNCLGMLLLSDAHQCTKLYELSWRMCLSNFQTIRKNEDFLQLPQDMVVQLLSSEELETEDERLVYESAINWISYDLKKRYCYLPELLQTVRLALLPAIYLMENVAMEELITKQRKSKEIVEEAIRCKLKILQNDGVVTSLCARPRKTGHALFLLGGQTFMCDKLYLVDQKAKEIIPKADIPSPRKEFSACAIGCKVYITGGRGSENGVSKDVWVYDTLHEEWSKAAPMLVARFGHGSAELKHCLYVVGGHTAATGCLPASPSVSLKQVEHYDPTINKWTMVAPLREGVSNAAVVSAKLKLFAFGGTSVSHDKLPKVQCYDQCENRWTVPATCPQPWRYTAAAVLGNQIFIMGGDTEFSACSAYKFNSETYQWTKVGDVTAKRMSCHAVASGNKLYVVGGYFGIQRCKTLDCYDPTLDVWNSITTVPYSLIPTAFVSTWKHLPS
Put plainly: SPR (Biacore X100, KLHL37-His immobilized on CM5 chip). In kind it is binding. In general terms: SPR reads the build-up and loss of mass on a sensor chip optically.

`CC1(C)CC[C@]2(NC(=O)C(C)(F)F)CC[C@]3(C)[C@H](C(=O)C=C4[C@@]5(C)C=C(C#N)C(=O)C(C)(C)[C@@H]5CC[C@]43C)[C@@H]2C1` [RTA-408] gave a dissociation constant (Kd) of 15.2 µM.

For orientation: Kd means the equilibrium constant for the complex coming apart. Read a low Kd as a tighter complex.
